This assay concerns the target Factor D (Homo sapiens (Human), UniProt P00746). Nature of the assay: Factor D esterolytic assay (Z-Lys-SBzl substrate, DTNB, 405 nm). It is filed as biochemical. To be noted: Z-Lys-SBzl 1.29 mM, pH 7.5, 10% DMSO, tested a minimum of three times, read-out: Measured Ki (IC50) Value for Compounds: IC50. In short, it runs like this: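 Human Factor D ([…]) with 1.29 mM Z-Lys-SBzl in 100 mM HEPES, 500 mM NaCl, pH 7.5, 10% DMSO; substrate added immediately or after room-temperature preincubation. Released thiol reacted with DTNB, rate followed at 405 nm for 600 sec, 690 nm background subtracted. IC50 from percent inhibition versus uninhibited rate, n≥3.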

SMILES strings stand for the structures. Bounds are passed on as bounds.

Factor D, sequence (P00746 26-253): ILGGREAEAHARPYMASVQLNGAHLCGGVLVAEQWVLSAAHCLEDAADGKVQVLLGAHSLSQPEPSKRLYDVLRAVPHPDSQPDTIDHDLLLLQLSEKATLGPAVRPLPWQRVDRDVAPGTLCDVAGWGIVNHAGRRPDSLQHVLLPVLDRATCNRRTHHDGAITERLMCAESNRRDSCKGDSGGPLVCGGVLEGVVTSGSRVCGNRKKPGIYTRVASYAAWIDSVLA

Take `N=C(N)c1cccc(-c2cc(COc3ccccc3CC(=O)O)cc3ccoc23)c1` [Compound 85c, 2-(2-((7-(3-carbamimidoylphenyl)benzofuran-5-yl)methoxy)phenyl)acetic acid]: the IC50 – broadly, the midpoint of a concentration-inhibition curve – was under 1 µM.

With `NCc1cccc(-c2cc(COc3ccccc3CC(=O)O)cc3cc(CCO)oc23)c1` [Compound 178g, 2-(2-((7-(3-(aminomethyl)phenyl)-2-(2-hydroxyethyl)benzofuran-5-yl)methoxy)phenyl)acetic acid], the IC50 was under 1 µM.

In the case of `Cn1cc(-c2ccc(CC(=O)O)c(OCc3cc(-c4cccc(CN)c4)c4occc4c3)c2)cn1` [Compound 396e, 2-(2-((7-(3-(aminomethyl)phenyl)benzofuran-5-yl)methoxy)-4-(1-methyl-1H-pyrazol-4-yl)phenyl)acetic acid], the IC50 is under 1 µM.

Consider `NCc1cccc(-c2cc(COc3ccccc3CC(=O)O)cc3cc(C4CC4)oc23)c1F` [Compound 88b, 2-(2-((7-(3-(aminomethyl)-2-fluorophenyl)-2-cyclopropylbenzofuran-5-yl)methoxy)phenyl)acetic acid], for which the IC50 was under 1 µM.

`NCc1cc(-c2cc(COc3ccc(F)cc3CC(=O)O)cc3ccoc23)ccn1` [Compound 329b, 2-(2-((7-(2-(aminomethyl)pyridin-4-yl)benzofuran-5-yl)methoxy)-5-fluorophenyl)acetic acid]: the IC50 is under 1 µM.

For `NCc1cccc(-c2cc(COc3ccccc3CC(=O)O)nc3[nH]ccc23)c1` [Compound 52a, 2-(2-((4-(3-(aminomethyl)phenyl)-1H-pyrrolo[2,3-b]pyridin-6-yl)methoxy)phenyl)acetic acid], the half-maximal inhibitory concentration (IC50) is under 1 µM.

As to `CCc1ccc(CC(=O)O)c(OCc2cc(-c3cccc(CN)c3F)c3oc(F)cc3c2)c1` [Compound 470b, 2-(2-((7-(3-(aminomethyl)-2-fluorophenyl)-2-fluorobenzofuran-5-yl)methoxy)-4-ethylphenyl)acetic acid], the IC50 was under 1 µM.

Consider `COCc1cc2cc(COc3ccccc3CC(=O)O)cc(-c3ccnc(CN)c3)c2o1` [Compound 132b, 2-(2-((7-(2-(aminomethyl)pyridin-4-yl)-2-(methoxymethyl)benzofuran-5-yl)methoxy)phenyl)acetic acid], for which the IC50 was under 1 µM.

As to `NCc1cccc(-c2cc(COc3c(CC(=O)O)ccc4occc34)cc3ccoc23)c1` [Compound 291g, 2-(4-((7-(3-(aminomethyl)phenyl)benzofuran-5-yl)methoxy)benzofuran-5-yl)acetic acid], the IC50 was under 1 µM.

Take `CN(Cc1ccccc1CC(=O)O)c1cc(-c2cccc(CN)c2)c2occc2c1` [Compound 378d, 2-(2-(((7-(3-(aminomethyl)phenyl)benzofuran-5-yl)(methyl)amino)methyl)phenyl)acetic acid]: the IC50 is under 1 µM.

As for `NCc1cccc(-c2cc(COc3ccccc3CC(=O)O)nc3ccoc23)c1` [Compound 119e, 2-(2-((7-(3-(aminomethyl)phenyl)furo[3,2-b]pyridin-5-yl)methoxy)phenyl)acetic acid], the IC50 is under 1 µM.

Consider `NCc1cccc(-c2cc(COc3ccccc3CC(=O)O)c3nccn3c2)c1` [Compound 71e, 2-(2-((6-(3-(aminomethyl)phenyl)imidazo[1,2-a]pyridin-8-yl)methoxy)phenyl)acetic acid], for which the IC50 is under 1 µM.

Consider `NCc1cccc(-c2cc(COc3ccccc3C(NC(=O)CCc3ccccc3)C(=O)O)cc3ccoc23)c1` (centres unmarked) [Compound 253f, 2-(2-((7-(3-(aminomethyl)phenyl)benzofuran-5-yl)methoxy)phenyl)-2-(3-phenylpropanamido)acetic acid], for which the concentration for half-maximal inhibition (IC50) is under 1 µM.

Regarding `NCc1cccc(-c2cc(COc3ccccc3CC(=O)O)nc3[nH]ccc23)c1F` [Compound 86b, 2-(2-((4-(3-(aminomethyl)-2-fluorophenyl)-1H-pyrrolo[2,3-b]pyridin-6-yl)methoxy)phenyl)acetic acid], the IC50 is under 1 µM.

Values taken from patent publication US11370774B2, “Substituted benzofuran, benzopyrrole, benzothiophene, and structurally related complement inhibitors” (BioCryst Pharmaceuticals, Inc., priority 2018, dated 2022).
